Results taken from patent US20220112187A1, “PYRAZOLOPYRIDINE AMINE COMPOUNDS FOR THE TREATMENT OF AUTOIMMUNE DISEASE” (Hoffmann-La Roche Inc., priority 2018, published 2022).

Each molecule was assayed against T1, human TLR7 (Homo sapiens, UniProt Q9NYK1) (assay: HEK293-Blue-hTLR-7 cells assay (SEAP reporter, R848 stimulation)). Conditions: HEK293-Blue-hTLR7 cells, R848 ligand, 20 hrs incubation.
T1 sequence (Q9NYK1 27-1049): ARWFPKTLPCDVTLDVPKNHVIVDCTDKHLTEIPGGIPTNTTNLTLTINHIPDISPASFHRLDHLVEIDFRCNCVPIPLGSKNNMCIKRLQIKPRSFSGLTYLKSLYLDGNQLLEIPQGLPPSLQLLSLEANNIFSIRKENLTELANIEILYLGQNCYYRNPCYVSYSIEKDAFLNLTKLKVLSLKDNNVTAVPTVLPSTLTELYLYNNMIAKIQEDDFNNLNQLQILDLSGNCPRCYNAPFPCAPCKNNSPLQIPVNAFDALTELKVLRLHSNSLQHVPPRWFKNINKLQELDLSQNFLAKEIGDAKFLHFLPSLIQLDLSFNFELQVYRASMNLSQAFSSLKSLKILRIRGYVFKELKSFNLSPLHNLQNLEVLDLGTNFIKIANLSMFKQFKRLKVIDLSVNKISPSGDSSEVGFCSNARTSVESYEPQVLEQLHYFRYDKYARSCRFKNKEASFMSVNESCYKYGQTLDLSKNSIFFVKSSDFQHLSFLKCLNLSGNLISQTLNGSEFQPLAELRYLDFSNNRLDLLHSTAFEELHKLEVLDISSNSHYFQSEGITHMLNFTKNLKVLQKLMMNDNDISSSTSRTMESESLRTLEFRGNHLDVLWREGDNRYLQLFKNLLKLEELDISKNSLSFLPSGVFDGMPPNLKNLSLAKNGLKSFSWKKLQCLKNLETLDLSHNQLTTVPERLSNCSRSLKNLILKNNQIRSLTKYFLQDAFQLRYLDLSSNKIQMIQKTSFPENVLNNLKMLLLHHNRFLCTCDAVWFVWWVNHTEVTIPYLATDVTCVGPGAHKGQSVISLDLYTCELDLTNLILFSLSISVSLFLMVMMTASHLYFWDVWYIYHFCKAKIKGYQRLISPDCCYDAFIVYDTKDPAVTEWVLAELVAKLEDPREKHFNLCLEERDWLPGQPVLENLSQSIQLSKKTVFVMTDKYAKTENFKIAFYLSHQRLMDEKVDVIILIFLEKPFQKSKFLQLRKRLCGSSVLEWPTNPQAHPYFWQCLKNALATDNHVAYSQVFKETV
Format: cell-based
Text: A stable HEK293-Blue-hTLR-7 cell line was purchased from InvivoGen (Cat. #: hkb-htlr7, San Diego, Calif., USA). These cells were originally designed for studying the stimulation of human TLR7 by monitoring the activation of NF-κB. A SEAP (secreted embryonic alkaline phosphatase) reporter gene was placed under the control of the IFN-β minimal promoter fused to five NF-κB and AP-1-binding sites. The SEAP was induced by activating NF-κB and AP-1 via stimulating HEK-Blue hTLR7 cells with TLR7 ligands. Therefore the reporter expression was declined by TLR7 antagonist under the stimulation of a ligand, such as R848 (Resiquimod), for incubation of 20 hrs. The cell culture supernatant SEAP reporter activity was determined using QUANTI-Blue™ kit (Cat. #: rep-qb1, Invivogen, San Diego, Ca, USA) at a wavelength of 640 nm, a detection medium that turns purple or blue in the presence of alkaline phosphatase.
HEK293-Blue-hTLR7 cells were incubated at a density of 250,000˜450,000 cells/mL in a volume of 170 μL in a 96-well plate in Dulbecco's Modified Eagle's medium (DMEM) containing 4.5 g/L glucose, 50 U/mL penicillin, […], […], 2 mM L-glutamine, 10% (v/v) heat-inactivated fetal bovine serum with addition of 20 μL test compound in a serial dilution in the presence of final DMSO at 1% and 10 μL of 20 uM R848 in above DMEM, perform incubation under 37° C. in a CO2 incubator for 20 hrs. Then 20 μL of the supernatant from each well was incubated with 180 μL Quanti-blue substrate solution at 37° C. for 2 hrs and the absorbance was read at 620˜655 nm using a spectrophotometer. The signalling pathway that TLR7 activation leads to downstream NF-κB activation has been widely accepted, and therefore similar reporter assay was modified for evaluating TLR7 antagonist.

SMILES | IC50 [nM]
C[C@@H]1CN(c2ccc(C#N)n3nccc23)C[C@H](CN2CC3CNCCC32)O1 (stereo partly drawn) [Example 52, 4-[(2S,6R)-2-(3,7-diazabicyclo[4.2.0]octan-7-ylmethyl)-6-methyl-morpholin-4-yl]pyrazolo[1,5-a]pyridine-7-carbonitrile] | 92
C[C@@H]1CN(c2ccc(C#N)n3nccc23)C[C@H](CN2CCC3(CCCN3)CC2)O1 [Example 53, 4-[(2S,6R)-2-(1,8-diazaspiro[4.5]decan-8-ylmethyl)-6-methyl-morpholin-4-yl]pyrazolo[1,5-a]pyridine-7-carbonitrile] | 230
C[C@@H]1CN(c2ccc(C#N)n3nccc23)C[C@H](CN2CCC(N3CCCC3)CC2)O1 [Example 54, 4-[(2R,6S)-2-methyl-6-[(4-pyrrolidin-1-yl-1-piperidyl)methyl]morpholin-4-yl]pyrazolo[1,5-a]pyridine-7-carbonitrile] | 190
C[C@@H]1CN(c2ccc(C#N)n3nccc23)C[C@H](CN2CCC23CNC3)O1 [Example 55, 4-[(2S,6R)-2-(1,6-diazaspiro[3.3]heptan-1-ylmethyl)-6-methyl-morpholin-4-yl]pyrazolo[1,5-a]pyridine-7-carbonitrile] | 540
C[C@@H]1CN(c2ccc(C#N)n3nccc23)C[C@H](CN2CC3CCNCC32)O1 (stereo partly drawn) [Example 56, 4-[(2S,6R)-2-(3,8-diazabicyclo[4.2.0]octan-8-ylmethyl)-6-methyl-morpholin-4-yl]pyrazolo[1,5-a]pyridine-7-carbonitrile] | 270
C[C@@H]1CN(c2ccc(C#N)n3nccc23)C[C@H](CN2C3CNCC2COC3)O1 [Example 57, 4-[(2R,6S)-2-methyl-6-(3-oxa-7,9-diazabicyclo[3.3.1]nonan-9-ylmethyl)morpholin-4-yl]pyrazolo[1,5-a]pyridine-7-carbonitrile] | 73
C[C@@H]1CN(c2ccc(C#N)n3nccc23)C[C@H](CN2C3COCC2CC(N)C3)O1 (stereo partly drawn) [Example 58, 4-[(2S,6R)-2-[(7-amino-3-oxa-9-azabicyclo[3.3.1]nonan-9-yl)methyl]-6-methyl-morpholin-4-yl]pyrazolo[1,5-a]pyridine-7-carbonitrile] | 90
C[C@@H]1CN(c2ccc(C#N)n3nccc23)C[C@H](CN2CCNCC2Cc2ccccc2)O1 (stereo partly drawn) [Example 59, 4-[(2S,6R)-2-[(2-benzylpiperazin-1-yl)methyl]-6-methyl-morpholin-4-yl]pyrazolo[1,5-a]pyridine-7-carbonitrile] | 7
C[C@@H]1CN(c2ccc(C#N)n3nccc23)C[C@H](CN2CCC3(CC2)CNCCO3)O1 [Example 60, 4-[(2R,6S)-2-methyl-6-(1-oxa-4,9-diazaspiro[5.5]undecan-9-ylmethyl)morpholin-4-yl]pyrazolo[1,5-a]pyridine-7-carbonitrile] | 100
C[C@@H]1CN(c2ccc(C#N)n3nccc23)C[C@H](CN2CCCC3CNCC32)O1 (stereo partly drawn) [Example 61, 4-[(2S,6R)-2-(2,3,4,4a,5,6,7,7a-octahydropyrrolo[3,4-b]pyridin-1-ylmethyl)-6-methyl-morpholin-4-yl]pyrazolo[1,5-a]pyridine-7-carbonitrile] | 460
C[C@@H]1CN(c2ccc(C#N)n3nccc23)C[C@H](CN2CC[C@@H]3CNCC32)O1 (stereo partly drawn) [Example 62, 4-[(2R,6S)-2-methyl-6-[[cis-(3aR,6aR)-3,3a,4,5,6,6a-hexahydro-2H-pyrrolo[3,4-b]pyrrol-1-yl]methyl]morpholin-4-yl]pyrazolo[1,5-a]pyridine-7-carbonitrile] | 710
C[C@@H]1CN(c2ccc(C#N)n3nccc23)C[C@H](CN2CCC[C@@H]3NCCC32)O1 (stereo partly drawn) [Example 63, 4-[(2R,6S)-2-methyl-6-[[cis-(3aS,7aS)-1,2,3,3a,5,6,7,7a-octahydropyrrolo[3,2-b]pyridin-4-yl]methyl]morpholin-4-yl]pyrazolo[1,5-a]pyridine-7-carbonitrile] | 270
C[C@@H]1CN(c2ccc(C#N)n3nccc23)C[C@H](CN2CCCC3NCCCC32)O1 (stereo partly drawn) [Example 64, 4-[(2S,6R)-2-(3,4,4a,5,6,7,8,8a-octahydro-2H-1,5-naphthyridin-1-ylmethyl)-6-methyl-morpholin-4-yl]pyrazolo[1,5-a]pyridine-7-carbonitrile] | 250
C[C@@H]1CN(c2ccc(C#N)n3nccc23)C[C@H](CN2C3CCCC2CC(N)C3)O1 (stereo partly drawn) [Example 65, Endo-4-[(2S,6R)-2-[(3-amino-9-azabicyclo[3.3.1]nonan-9-yl)methyl]-6-methyl-morpholin-4-yl]pyrazolo[1,5-a]pyridine-7-carbonitrile] | 460
C[C@@H]1CN(c2ccc(C#N)n3nccc23)C[C@H](CN2C3CCCC2CC(N)C3)O1 (stereo partly drawn) [Example 66, Exo-4-[(2S,6R)-2-[(3-amino-9-azabicyclo[3.3.1]nonan-9-yl)methyl]-6-methyl-morpholin-4-yl]pyrazolo[1,5-a]pyridine-7-carbonitrile] | 490
C[C@@H]1CN(c2ccc(C#N)n3ncc(F)c23)C[C@H](CN2CCCC3(CCNCC3)C2)O1 [Example 67, 4-[(2S,6R)-2-(2,9-diazaspiro[5.5]undecan-2-ylmethyl)-6-methyl-morpholin-4-yl]-3-fluoro-pyrazolo[1,5-a]pyridine-7-carbonitrile] | 280
C[C@@H]1CN(c2ccc(C#N)n3ncc(F)c23)C[C@H](CN2CCCC3(CCNC3)C2)O1 (stereo partly drawn) [Example 68, 3-fluoro-4-[(2S,6R)-2-(2,7-diazaspiro[4.5]decan-7-ylmethyl)-6-methyl-morpholin-4-yl]pyrazolo[1,5-a]pyridine-7-carbonitrile] | 230
C[C@@H]1CN(c2ccc(C#N)n3ncc(F)c23)C[C@H](CN2CCC3(CCCNC3)C2)O1 (stereo partly drawn) [Example 69, 3-fluoro-4-[(2S,6R)-2-(2,9-diazaspiro[4.5]decan-2-ylmethyl)-6-methyl-morpholin-4-yl]pyrazolo[1,5-a]pyridine-7-carbonitrile] | 130
C[C@@H]1CN(c2ccc(C#N)n3nccc23)C[C@H](CN2CCC3NCC3C2)O1 (stereo partly drawn) [Example 70, 4-[(2S,6R)-2-(3,7-diazabicyclo[4.2.0]octan-3-ylmethyl)-6-methyl-morpholin-4-yl]pyrazolo[1,5-a]pyridine-7-carbonitrile] | 230
C[C@@H]1CN(c2ccc(C#N)n3nccc23)C[C@H](CN2CCOC3(CCNCC3)C2)O1 [Example 71, 4-[(2R,6S)-2-methyl-6-(1-oxa-4,9-diazaspiro[5.5]undecan-4-ylmethyl)morpholin-4-yl]pyrazolo[1,5-a]pyridine-7-carbonitrile] | 450
C[C@@H]1CN(c2ccc(C#N)n3nccc23)C[C@H](CN2CCC(N)(c3ccccc3)CC2)O1 [Example 73, 4-[(2S,6R)-2-[(4-amino-4-phenyl-1-piperidyl)methyl]-6-methyl-morpholin-4-yl]pyrazolo[1,5-a]pyridine-7-carbonitrile] | 150
C[C@@H]1CN(c2ccc(C#N)n3nccc23)C[C@H](CN2CC[C@H](N)[C@H](C)C2)O1 [Example 74, 4-[(2S,6R)-2-[[(3R,4S)-4-amino-3-methyl-1-piperidyl]methyl]-6-methyl-morpholin-4-yl]pyrazolo[1,5-a]pyridine-7-carbonitrile] | 89
C[C@@H]1CN(c2ccc(C#N)n3nccc23)C[C@H](CN2CCC3(CN(C)CCO3)C2)O1 (stereo partly drawn) [Example 76, 4-[(2R,6S)-2-methyl-6-[(9-methyl-6-oxa-2,9-diazaspiro[4.5]decan-2-yl)methyl]morpholin-4-yl]pyrazolo[1,5-a]pyridine-7-carbonitrile] | 920
